Where two headings read alike, the source gives them in different places.
How the values were obtained:
HepG2 and HEK-293 [1] = test: Autofluorescence assays, green channel, the four conditions taken together; details: for autofluorescence activity: example structures of SOM clusters 209, 173, 117
Protocol: (§1) Three assay platforms were applied to analyze luciferase and fluorescence interference patterns using the Tox21 chemical screening library.
(§2) HepG2 and HEK-293 cells were purchased from American Type Culture Collection (ATCC, Manassas, VA). HepG2 cells were cultured in Eagle’s Minimum Essential Medium (EMEM, ATCC) and HEK-293 cells in Dulbecco’s Modified Eagle’s Medium (DMEM, Life Technologies Corporation, Carlsbad, CA), and both supplemented with 10% Hyclone’s Fetal Bovine Serum (ThermoFisher Scientific, Waltham, MA), and 100 U/ml penicillin-100 µg/ml streptomycin (Life Technologies Corporation). Cells were cultured and maintained at 37 °C under a humidified atmosphere and 5% CO2.
(§3) HepG2 and HEK-293 cells were dispensed at 2,000/well in 5 µL of the culture medium into 1,536-well black/clear plates using a Multidrop™ Combi Reagent dispenser (ThermoFisher Scientific). In parallel, 5 µL/well of culture medium only were dispensed into 1,536-well black/clear plates. […] After respective incubation times, 23 nL of the compounds dissolved in DMSO, positive controls (fluorescein-green, triamterene-blue, and rose bengal-red) were transferred to the assay plates using Pintool station (Wako, San Diego, CA). […] Data were expressed as relative fluorescence units.
(§4) Analysis of compound concentration-response data was performed as previously described. Briefly, raw plate reads for each titration point were first normalized and then corrected by applying a pattern correction algorithm using compound-free control plates (DMSO plates)[22]. […] When normalizing to the positive control, the positive control response was set to 100% and negative control to 0% as follows: Activity(%)=([Vc−VDMSO]/[Vpos−VDMSO])×100, where Vc denotes the compound well values, Vpos denotes the median value of the positive control wells, and VDMSO denotes the median values of the DMSO-only wells. […] The following formula was used to normalize data to the negative control: Activity(%)=([Vc−VDMSO]/[VDMSO])×100 Concentration-response titration points for each compound were fitted to the Hill equation and concentrations of half-maximal activity (AC50) and maximal response (efficacy) values were calculated. Concentration response curves were designated as class 1–4 based on the quality of the fit, the number of points above background, and the response efficacy, as previously described (summarized in Supporting Information Table S1)[18],[20].
Finally, for autofluorescence assays, to avoid indications of generalized cell stress without specific biomolecular interactions, only AC50 below the burst cutoff defined in[23] were considered. […]

HepG2 cells = test: Autofluorescence qHTS, HepG2 cell based, green channel; details: Homo sapiens, green spectrum, unit inferred
Protocol: (§5) Three assay platforms were applied to analyze luciferase and fluorescence interference patterns using the Tox21 chemical screening library. […] The Tox21 chemical library (8,305 unique substances) was screened in triplicate concentration response in all assays, with concurrent cytotoxicity measurements where applicable.
(§6) HepG2 and HEK-293 cells were purchased from American Type Culture Collection (ATCC, Manassas, VA). […]
(§7) HepG2 and HEK-293 cells were dispensed at 2,000/well in 5 µL of the culture medium into 1,536-well black/clear plates using a Multidrop™ Combi Reagent dispenser (ThermoFisher Scientific). […] The fluorescence intensity was measured using an Envision plate reader (Perkin Elmer, Waltham, MA) by using excitation/emission filters at 485/535 nm, 405/460 nm, and 540/590 nm for green, blue and red channels respectively. Data were expressed as relative fluorescence units. Each test compound was measured at 5 concentrations ranging from to 29 nM to 92 µM.
(§8) Analysis of compound concentration-response data was performed as previously described. Briefly, raw plate reads for each titration point were first normalized and then corrected by applying a pattern correction algorithm using compound-free control plates (DMSO plates)[22]. […]

HEK-293 cells = test: Autofluorescence qHTS, HEK-293 cell based, green channel; details: Homo sapiens; Hek293 cell based, green spectrum; unit inferred
Protocol: as §5, §6, §7, §8

HepG2 and HEK-293 [2] = test: Autofluorescence assays, all channels and culture conditions taken together; details: for autofluorescence activity specific to one cell culture: among chemicals active within wavelengths, Fig. 8
Protocol: as §5, §2
as §7, with “Scientific). In parallel, 5 µL/well of culture medium only were dispensed into 1,536-well black/clear plates. […] After respective incubation times, 23 nL of the compounds dissolved in DMSO, positive controls (fluorescein-green, triamterene-blue, and rose bengal-red) were transferred to the assay plates using Pintool station (Wako, San Diego, CA).” for “Scientific).”
as §4
Finally, for autofluorescence assays, to avoid indications of generalized cell stress without specific biomolecular interactions, only AC50 below the burst cutoff defined in[23] were considered. Indeed, activity above this limit may result from triggering cell stress pathways, chemical reactivity, physico-chemical disruption of proteins or membranes, or broad low-affinity non-covalent interactions and not from a specific technology interference reaction. […]

firefly-Luciferase = target: T1, firefly-Luciferase (Photinus pyralis, UniProt P08659); test: Luciferase (biochemical) qHTS assay, tox21-luc-biochem-p1, cell-free; details: for AC50: no unit printed in the picture (text uses µM)
T1 construct: purchased Sigma-Aldrich (St. Louis, MO)
T1 sequence (P08659 whole entry): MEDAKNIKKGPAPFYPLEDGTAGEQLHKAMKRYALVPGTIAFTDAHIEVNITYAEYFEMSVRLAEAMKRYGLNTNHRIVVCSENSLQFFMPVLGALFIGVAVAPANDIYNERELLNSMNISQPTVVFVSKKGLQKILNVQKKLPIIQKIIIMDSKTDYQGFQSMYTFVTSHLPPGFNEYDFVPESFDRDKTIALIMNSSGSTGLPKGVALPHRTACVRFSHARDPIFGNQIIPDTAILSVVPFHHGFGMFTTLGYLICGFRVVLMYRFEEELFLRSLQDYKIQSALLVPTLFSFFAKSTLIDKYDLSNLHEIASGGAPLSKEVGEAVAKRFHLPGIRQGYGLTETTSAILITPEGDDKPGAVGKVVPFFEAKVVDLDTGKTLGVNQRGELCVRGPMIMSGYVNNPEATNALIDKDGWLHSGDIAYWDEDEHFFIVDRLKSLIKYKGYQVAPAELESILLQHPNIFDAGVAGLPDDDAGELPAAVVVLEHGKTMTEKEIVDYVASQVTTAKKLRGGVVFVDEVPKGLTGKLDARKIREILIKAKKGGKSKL
Text: as §5
The substrate D-Luciferin and the enzyme firefly-Luciferase were purchased from Sigma-Aldrich (St. Louis, MO). The positive control compound (PTC-124) was purchased from Santa Cruz Biotechnology, Inc. (Dallas, TX).
Three µL of the substrate (mixture containing 50 mM Tris-acetate pH 7.6, 13.3 mM magnesium acetate, 0.01 mM D-luciferin, 0.01 mM ATP, 0.01% Tween, 0.05% BSA and distilled H2O) was dispensed into medium-binding white/solid 1,536-well plates (Greiner Bio-One North America Inc., Monroe, NC) using a Flying Reagent Dispenser, FRD (Aurora Discovery, Carlsbad, CA). Then 23 nL of the test compounds (into 5–48 columns), PTC-124 and/or DMSO (into 1–4 columns) were transferred to the assay plates using a Pintool station (Wako, San Diego, CA). The positive control plate format is, column-1: sixteen-concentration two-fold titration of PTC-124 from 0.035 nM to 1.15 µM with duplicate points; columns-2 & 3 for the top half portions: 0.58 and 1.15 µM PTC-124 respectively and DMSO in the rest. Compound addition was followed by the addition of 1 μl of 10 nM enzyme (mixture containing 50 mM Tris-acetate, 0.04 µM firefly-Luciferase and distilled H2O) by using an FRD to all the wells of assay plate except in the 4th column which received the buffer instead. After 5 min incubation at room temperate, luminescence intensity was measured by a Viewlux plate reader (Perkin Elmer, Waltham, MA). Data were expressed as relative luminescence units. Each test compound was measured at 15 concentrations ranging from 1.5 nM to 115 µM and in triplicate.
For primary data analysis, raw plate reads for each titration point were first normalized relative to DMSO-only wells that received firefly-Luciferase (basal, 0%) and PTC-124 control wells that received firefly-Luciferase (0.58 µM, −100%) and then corrected by applying a pattern correction algorithm using compound-free control plates (DMSO plates). Concentration-response titration points for each compound replicate were fitted to the Hill equation and concentrations of half-maximal inhibition activity (IC50) and maximal response (efficacy) values were calculated; the mean of the IC50s was used as the representative value. Concentration response curves were designated as class 1–4 based on the quality of the fit, the number of points above background, and the response efficacy, as previously described (summarized in Supporting Information Table S1)[18],[20].
(§9) Finally, for autofluorescence assays, to avoid indications of generalized cell stress without specific biomolecular interactions, only AC50 below the burst cutoff defined in[23] were considered. Indeed, activity above this limit may result from triggering cell stress pathways, chemical reactivity, physico-chemical disruption of proteins or membranes, or broad low-affinity non-covalent interactions and not from a specific technology interference reaction. This filter was applied to distinguish chemical-structure driven autofluorescence from the increase in signal that has been observed due to cell stress. The distribution of the curve classes for active chemicals is presented in Supporting Information Fig. S1.

HepG2 and HEK-293 [3] = test: Autofluorescence assays, blue channel, the four conditions taken together (HepG2/HEK-293, cell-based/cell-free); details: for autofluorescence activity specific to culture condition: Fig. 8A
Protocol: as §1, §2, §3, §4
as §9, with “stress.” for “stress. The distribution of the curve classes for active chemicals is presented in Supporting Information Fig. S1.”

HepG2 and HEK-293 [4] = test: Autofluorescence assays, red channel, the four conditions taken together
Protocol: as §5, §2
as §7, with “Scientific). In parallel, 5 µL/well of culture medium only were dispensed into 1,536-well black/clear plates. […] After respective incubation times, 23 nL of the compounds dissolved in DMSO, positive controls (fluorescein-green, triamterene-blue, and rose bengal-red) were transferred to the assay plates using Pintool station (Wako, San Diego, CA).” for “Scientific).”
as §4, with “Concentration response curves were designated as class 1–4 based on the quality of the fit, the number of points above background, and the response efficacy, as previously described (summarized in Supporting Information Table S1)[18],[20].” left out

[5] = all four assay conditions, read-out: AC50s

## O=C1OC2(c3ccc(O)cc3Oc3cc(O)ccc32)c2ccccc21 [fluorescein]
HepG2 and HEK-293 [1]; all four assay conditions
  curve class: 1.1
HepG2 and HEK-293 [1]; [5]
  EC50: < 4000 nM
HepG2 cells
  AC50: 3160 nM
HEK-293 cells
  AC50: 2820 nM

## Nc1ccc(N)c2ccccc12 [Chemical 79]
HepG2 and HEK-293 [2]
  autofluorescence activity specific to one cell culture: active specifically on the HepG2 culture

## [O-][n+]1ccccc1S [13463-41-7]
firefly-Luciferase; after filtering, no unit printed in the sheet, read-out: Luc_IC50
  IC50: 481 nM

## O=C1CCCCC1 [Chemical 59]
HepG2 and HEK-293 [3]
  autofluorescence activity specific to culture condition: active only in the HEK-293 cell-free condition

## CC(CO)NC(=O)C1C=C2c3cccc4[nH]cc(c34)CC2N(C)C1 (centres unmarked) [Chemical 36]
HepG2 and HEK-293 [1]
  autofluorescence activity: actives

## O=C1CCCO1 [Chemical 32]
HepG2 and HEK-293 [1]
  autofluorescence activity: Active
HepG2 and HEK-293 [2]; green and red channel, SOM cluster 209
  autofluorescence activity: autofluorescent in both the green and red channel

## CN(C)N=Nc1nc[nH]c1C(N)=O [Chemical 63]
HepG2 and HEK-293 [2]
  autofluorescence activity specific to one cell culture: active specifically on the HepG2 culture

## Nc1ccc(N)cc1 [Chemical 77]
HepG2 and HEK-293 [2]
  autofluorescence activity specific to one cell culture: active only on HEK-293

## O=C(O)c1cccc(-c2noc(-c3ccccc3F)n2)c1 [PTC-124, Ataluren]
firefly-Luciferase
  response curve class: −1.1
firefly-Luciferase; estimated, based on triplicate measurements, read-out: IC50
  IC50: < 20 nM
firefly-Luciferase; set1
  AC50: 0.00871 µM
firefly-Luciferase; set2
  AC50: 0.0195 µM
firefly-Luciferase; set3
  AC50: 0.0195 µM

## rose bengal
HepG2 and HEK-293 [4]; all four assay conditions
  response curve class: 2.1
HepG2 and HEK-293 [4]; [5]
  EC50: < 12000 nM
HepG2 and HEK-293 [4]; incomplete response
  efficacy: > 80%

## OC[C@H]1O[C@@H]2O[C@H]3[C@H](O)[C@@H](O)[C@@H](O[C@H]4[C@H](O)[C@@H](O)[C@@H](O[C@H]5[C@H](O)[C@@H](O)[C@@H](O[C@H]6[C@H](O)[C@@H](O)[C@@H](O[C@H]7[C@H](O)[C@@H](O)[C@@H](O[C@H]8[C@H](O)[C@@H](O)[C@@H](O[C@H]1[C@H](O)[C@H]2O)O[C@@H]8CO)O[C@@H]7CO)O[C@@H]6CO)O[C@@H]5CO)O[C@@H]4CO)O[C@@H]3CO [Chemical 58]
HepG2 and HEK-293 [3]
  autofluorescence activity specific to culture condition: active only in the HEK-293 cell-free condition

## O=C(O)CCCc1ccc(N(CCCl)CCCl)cc1 [Chemical 44]
HepG2 and HEK-293 [4]; example structures of SOM clusters 194 (219 in Fig. 6) and 143
  autofluorescence activity: actives

## triamterene [Tiramterene]
HepG2 and HEK-293 [3]; all four assay conditions
  response curve class: 2.1
HepG2 and HEK-293 [3]; [5]
  EC50: < 40000 nM
HepG2 and HEK-293 [3]; incomplete response
  efficacy: > 80%

## CCCNC(=O)NS(=O)(=O)c1ccc(Cl)cc1 [Chemical 49]
HepG2 and HEK-293 [2]
  autofluorescence activity specific to one cell culture: active only on HEK-293
